Assay results reported in ChEMBL document CHEMBL1131604, “3,6-Diamino-10-methylacridan: uncharged precursor of acriflavine and its unique antimicrobial activity” (1998).

How the values were obtained:
Human alphaherpesvirus 1 [1] = assay: Reduction of titer of Herpes simplex type-1 virus after 2 hr of incubation at 0.1% concentration; type: functional
Human alphaherpesvirus 1 [2] = assay: Reduction of titer of Herpes simplex type-1 virus after 2 hr of incubation at 0.01% concentration; type: functional

## CN1c2cc(N)ccc2Cc2ccc(N)cc21
Human alphaherpesvirus 1 [1]
  TCID50: 3.7
Human alphaherpesvirus 1 [2]
  TCID50: 1.6
